The nature of series [1]: Total brain antiepileptic drug concentrations (fluorescence polarization immunoassay). Particulars: AED + vehicle, mean ± S.E.M., n = 8. As to the method: The whole brains of mice were removed from the skulls, weighed, harvested, and homogenized using Abbott buffer (1:2 weight/volume; Abbott Laboratories, North Chicago, IL, USA) in an Ultra-Turrax T8 homogenizer. The homogenates were then centrifuged at 10,000 g for 10 min, and the supernatant samples of 100 μl were collected and then analyzed for AED content. Total brain concentrations of CBZ, PB, PHT, and VPA were measured by a fluorescence polarization immunoassay using an analyzer (Abbott TDx) and manufacturer-supplied reagent kits (Abbott Laboratories, North Chicago, IL, USA). Total brain AED concentrations are expressed in μg g^−1 of wet brain tissue as means ± standard error of the mean (S.E.M.) of at least eight separate brain preparations.

The subject of series [2] is MES-induced seizures in mice. As to the kind of experiment: Maximal electroshock seizure (MES) test, AEDs alone and in combination. Particulars: AED + vehicle (alone), i.p., 25 mA, ± S.E.M. The format is in vivo, Swiss mice. The procedure: The stimulus duration was 0.2 s.
These parameters of stimulation (maximal electroshock) typically result in all mice responding with tonic hind limb extension immediately after stimulation. The AEDs administered alone and their combination with modafinil, its metabolites, or GBR 12909 were tested for their ability to increase the number of animals not responding with tonus (i.e., protected from tonic hind limb extension) after stimulation. […] After constructing a dose-effect curve (i.e., dose in mg kg^−1 vs percentage of mice protected), the protective median effective dose (ED50) value of the AED tested was calculated according to a log-probit method by Litchfield and Wilcoxon ([1949]). […] Modafinil, its two metabolites, and GBR 12909 were tested for their ability to affect the anticonvulsive potency of AEDs.

Series [3] concerns motor coordination in mice. Put plainly: Chimney test. Particulars: n = 8 mice/group. The format is in vivo, Swiss mice. An excerpt:
The chimney test of Boissier et al. ([1960]) was used to quantify the adverse effect potential of classical AEDs administered in combination with modafinil, its metabolites, or GBR 12909. In this test, the animals had to climb backwards up a plastic tube (3-cm inner diameter, 30 cm long), and impairment of motor performance was indicated by the inability of the mice to climb backward up the transparent tube within 60 s.

Series [4] concerns skeletal muscular strength in mice. As to the kind of experiment: Grip strength test. The series is classed as in vivo, Swiss mice. To be noted: mean ± S.E.M. The procedure: The effects of combinations of modafinil (50 mg kg^−1), sulfone and acid metabolites (50 mg kg^−1), or GBR 12909 (25 mg kg^−1) with different classical AEDs at doses corresponding to their ED50 values from the MES test on skeletal muscular strength in mice were quantified by the grip strength test of Meyer et al. ([1979]). The grip strength apparatus (BioSeb, Chaville, France) comprised a wire grid (8 × 8 cm) connected to an isometric force transducer (dynamometer). The mice were lifted by the tails so that their forepaws could grasp the grid. The mice were then gently pulled backward by the tail until the grid was released. The maximal force exerted by the mouse before losing grip was recorded. The mean of three measurements for each animal was calculated, and subsequently, the mean maximal force of eight animals per group was determined. The muscular strength in mice is expressed in N (newtons) as the means ± S.E.M. of at least eight determinations.

In series [5] the test system is locomotor activation in mice. Also on record: method as in Paterson et al. [2010]. To be noted: ref Paterson et al. [2010]; cited from earlier work.
Series [6] concerns passive avoidance performance in mice. As to the kind of experiment: Step-through passive avoidance task. The format is in vivo, Swiss mice. To be noted: median (25th; 75th percentiles), observed up to 180 s. As to the method:
The effects of combinations of modafinil (50 mg kg^−1), its metabolites (50 mg kg^−1), or GBR 12909 (25 mg kg^−1) with different classical AEDs were quantified by the step-through passive avoidance task of Venault et al. ([1986]). AEDs were administered at doses corresponding to their ED50 values from the MES test. Each animal received an AED either alone or in combination either with modafinil, sulfone, and acid metabolites or with GBR 12909 on the first day before training. The time before commencement of the training session (after drug administration) in the step-through passive avoidance task was identical to that for the MES test. Subsequently, the animals were placed in an illuminated box (10 × 13 × 15 cm) connected to a larger dark box (25 × 20 × 15 cm) equipped with an electric grid floor. Entrance of the animals to the dark box was punished by an adequate electric footshock (0.6 mA for 2 s). […] On the following day (24 h later), the pretrained animals were placed again into the illuminated box and observed for up to 180 s. Mice that avoided the dark compartment for 180 s were considered as having remembered the task. The time the mice took to enter the dark box was noted, and the median latencies (retention times) with 25th and 75th percentiles were calculated.

The test system of series [7] is threshold for electroconvulsions in mice. As to the kind of experiment: Maximal electroshock seizure threshold (MEST) test. Particulars: for TID20 (dose that increases threshold by 20 %): i.p., 30 min before test, from linear regression of dose vs threshold increase. (In general: In the maximal electroshock model the usual endpoint is tonic extension of the hind limbs.)

The subject of series [8] is MES-induced seizures in mice. Also on record: method as in Chatterjie et al. [2004]. Particulars: 300 mg kg^−1 i.p., ref Chatterjie et al. [2004], cited from earlier work.
[9] abbreviates: i.p.: CBZ 4.3, PB 13.0, PHT 5.4, VPA 245.3 mg kg^−1 (control of MOD).
Setting [10] is: i.p.: CBZ 5.7, PB 14.0, PHT 6.0, VPA 226.4 mg kg^−1 (control of SULF).
The mark [11] stands for this setting: i.p.: CBZ 6.4, PB 14.4, PHT 6.3, VPA 241.6 mg kg^−1 (control of ACID).
The mark [12] stands for this setting: i.p.: CBZ 11.2, PB 15.4, PHT 7.0, VPA 211.4 mg kg^−1 (control of GBR).
Where [13] appears, read: control of GBR series (Table 5).
[14] abbreviates: control of MOD, SULF and ACID series (Tables 2-4).
Setting [15] is: GBR alone 25 mg kg^−1 i.p. + vehicle.
Setting [16] is: compound alone 50 mg kg^−1 i.p. + vehicle.

Regarding `O=C1NC(=O)C(c2ccccc2)(c2ccccc2)N1` [PHT, phenytoin], the “Brain concentration of the AED” value in series [1] (setting [9]) is 1.39 ± 0.20 μg g^−1 of wet brain tissue; in series [1] (setting [10]), 1.65 ± 0.19 μg g^−1 of wet brain tissue; in series [1] (setting [11]), 1.70 ± 0.15 μg g^−1 of wet brain tissue; in series [1] (setting [12]), 3.22 ± 0.30 μg g^−1 of wet brain tissue. Also, the “ED50 of the AED (protecting 50 % of animals against MES-induced hind limb extension)” value in series [2] (setting [13]) was determined as 12.10 ± 1.20 mg/kg; in series [2] (setting [14]), 11.00 ± 0.93 mg/kg.
As for `CCC1(c2ccccc2)C(=O)NC(=O)NC1=O` [PB, phenobarbital], the “Brain concentration of the AED” value in series [1] (setting [9]) is recorded as 23.56 ± 1.10 μg g^−1 of wet brain tissue; in series [1] (setting [10]), 23.71 ± 0.86 μg g^−1 of wet brain tissue; in series [1] (setting [11]), 25.46 ± 0.84 μg g^−1 of wet brain tissue; in series [1] (setting [12]), 24.18 ± 0.70 μg g^−1 of wet brain tissue. Moreover, the figures for the “ED50 of the AED (protecting 50 % of animals against MES-induced hind limb extension)” value in series [2] (setting [13]) and in series [2] (setting [14]) were 26.90 ± 2.15 mg/kg and 20.80 ± 3.12 mg/kg, respectively.
In the case of `Fc1ccc(C(OCCN2CCN(CCCc3ccccc3)CC2)c2ccc(F)cc2)cc1` [GBR], the “Motor coordination impairment (number of animals showing impairment in the chimney test)” value (“Motor coordination impairment” for short) in series [3] (setting [15]) is listed as 1/8. Also, the Grip strength in series [4] (setting [15]) is given as 0.937 ± 0.042 N. In addition, in series [5], the “Dose eliciting equivalent locomotor activation” value was 15 mg/kg. In series [6] (setting [15]), the Retention time was 180 (133.5; 180) s. The “TI (percentage of threshold increase over vehicle control)” value is 11.25% in series [7] (6.25 mg kg^−1 i.p.), 19.18% in series [7] (12.5 mg kg^−1 i.p.), 25.67% in series [7] (25 mg kg^−1 i.p.) and 44.53% in series [7] (50 mg kg^−1 i.p.). In addition, the “TID20 (dose that increases threshold by 20 %)” value in series [7] is 16.37 mg/kg.
Regarding `NC(=O)CS(=O)(=O)C(c1ccccc1)c1ccccc1` [SULF, diphenylmethylsufonylacetamide], the “Motor coordination impairment” value in series [3] (setting [16]) is 0/8. The “Protection against MES-induced seizures” value in series [8] (administered alone) is reported as 50%. In series [4] (setting [16]), the Grip strength came to 0.957 ± 0.058 N. Further, the Retention time in series [6] (setting [16]) was 180 (180; 180) s. Further, the “TI (percentage of threshold increase over vehicle control)” value in series [7] (12.5 mg kg^−1 i.p.) was 14.24%; in series [7] (25 mg kg^−1 i.p.), 21.62%; in series [7] (50 mg kg^−1 i.p.) it was 32.34%; in series [7] (75 mg kg^−1 i.p.), 58.88%. In series [7], the “TID20 (dose that increases threshold by 20 %)” value is 23.57 mg/kg.
For `NC(=O)N1c2ccccc2C=Cc2ccccc21` [CBZ, carbamazepine], the “Brain concentration of the AED” value in series [1] (setting [9]) was 2.41 ± 0.48 μg g^−1 of wet brain tissue; in series [1] (setting [10]) it was 3.76 ± 0.35 μg g^−1 of wet brain tissue; in series [1] (setting [11]), 4.46 ± 0.31 μg g^−1 of wet brain tissue; in series [1] (setting [12]) it was 6.66 ± 0.42 μg g^−1 of wet brain tissue. In addition, the “ED50 of the AED (protecting 50 % of animals against MES-induced hind limb extension)” value in series [2] (setting [13]) was 15.53 ± 1.04 mg/kg; in series [2] (setting [14]), 11.23 ± 1.20 mg/kg.
For `CCCC(CCC)C(=O)O` [VPA, valproate], the “Brain concentration of the AED” value in series [1] (setting [9]) is 299.73 ± 15.09 μg g^−1 of wet brain tissue; in series [1] (setting [10]), 276.30 ± 11.55 μg g^−1 of wet brain tissue; in series [1] (setting [11]), 346.98 ± 16.10 μg g^−1 of wet brain tissue; in series [1] (setting [12]), 173.66 ± 10.36 μg g^−1 of wet brain tissue. Also, the “ED50 of the AED (protecting 50 % of animals against MES-induced hind limb extension)” value in series [2] (setting [13]) came to 286.7 ± 20.11 mg/kg; in series [2] (setting [14]), 328.6 ± 13.17 mg/kg.
For the compound `O=C(O)CSC(c1ccccc1)c1ccccc1` [ACID, diphenylmethylthioacetic acid], in series [3] (setting [16]), the “Motor coordination impairment” value is 0/8. Besides, the “Toxicity at the dose tested in the MES test” value in series [8] is on record as “toxic”. In addition, the Grip strength in series [4] (setting [16]) is 0.961 ± 0.050 N. In series [6] (setting [16]), the Retention time is on record as 180 (133.5; 180) s. Also, the “TI (percentage of threshold increase over vehicle control)” value turned out to be 12.83% in series [7] (12.5 mg kg^−1 i.p.), 22.32% in series [7] (25 mg kg^−1 i.p.), 34.80% in series [7] (50 mg kg^−1 i.p.) and 57.82% in series [7] (75 mg kg^−1 i.p.). For the same compound, the “TID20 (dose that increases threshold by 20 %)” value in series [7] turned out to be 23.47 mg/kg.

Values taken from publication PMC4480820, “Modafinil and its metabolites enhance the anticonvulsant action of classical antiepileptic drugs in the mouse maximal electroshock-induced seizure model” (Psychopharmacology, 2015).
